The source of these data is a melting point compilation (Tetko et al.; mined from patent text by program, amines drawn as free bases though some values may be those of a salt).

Molecules are shown by their SMILES.

`COc1cc(NC(=O)c2ccc(Cl)cc2)c(C(N)=O)cc1OC` came in with a melting point of 120 to 122 °C.

For the molecule `CC1=C(c2ccccc2)C(=O)N(C(C)(C)C(O)C(C)C)CO1` (configuration not stated), the melting point was 42 to 54 °C.

The molecule `Clc1ccc2c(c1)C(c1ccccc1)Nc1nccn1-2` (configuration not stated) displayed a melting point of 239 to 241 °C. Consider `COC(=O)C1CCc2c(oc3cccc(Cl)c23)C1` (configuration not stated), for which the melting point was in the range of 99 to 102 °C.

Take `O=C(O)C(C(=O)O)C1c2ccccc2CCc2ccccc21`: the melting point came out at 183 °C. As for `N#C/C=C1\CCc2ncc3c(c21)CCO3`, the melting point was in the range of 231 to 233 °C. To `CN(C)c1ccc(OCC(=O)c2cccc(Cl)c2)cc1` belongs 69 to 70 °C; to `CN1CCCCC1CCc1ccccc1NC(=O)c1ccc([N+](=O)[O-])cc1` (configuration not stated), 162 to 164 °C; to `OC1CC2(CCN(C3CCC3)CC2)Oc2ccccc21` (configuration not stated), 211 to 213 °C. The same measure for `CCc1cccc(CC)c1NC(=O)C1c2ccccc2COc2ccc(C)cc21` (configuration not stated): 202 to 203 °C; for `CN(C)C=C1C(=O)N(c2cccc(C(F)(F)F)c2)c2ccccc21`: 103 to 106 °C.

With `O=C(NCCCCCCOC(=O)Oc1ccc([N+](=O)[O-])cc1)Oc1ccc(Oc2ccccc2)cc1`, the melting point is 102 to 104 °C. The same measure for `COc1ccc2nc(N3CCNCC3)cc(C(F)(F)F)c2c1`: 130 °C; for `C=CCN(CC=C)Cc1noc(-c2ncn3c2[C@@H]2CCN2C(=O)c2c(Cl)cccc2-3)n1`: 190 to 192 °C. To `CC(=O)OCC1OC(C2=NNC(N)(c3ccc(Cl)c(Cl)c3)O2)C(OC(C)=O)C(OC(C)=O)C1OC(C)=O` (configuration not stated) belongs 180 to 181 °C; to `CC(C)(C)OC(=O)N=C(NC(=O)OC(C)(C)C)Nc1ccc2c(c1)Cc1cc(NC(=NC(=O)OC(C)(C)C)NC(=O)OC(C)(C)C)ccc1-2`, over 340 °C. To `CS(=O)(=O)NCc1ccc([N+](=O)[O-])cc1` belongs 136 to 139 °C; to `Cc1nc(N(C)C)sc1C(=O)c1ccc(Cl)c([N+](=O)[O-])c1`, 165 to 169 °C; to `N#Cc1ccc(-c2cc(-c3cc(Br)ccc3Cl)no2)cc1`, 198 to 199 °C. In turn, `CC(C)(CO)c1ccc(C(=O)Nc2cn3cc(-n4ccnc4)ccc3n2)cc1` gave a melting point of 278 to 280 °C. The same measure for `Cc1cccc(NC(=O)CN2CCN(c3ccccc3C)CC2)c1`: 104 to 106 °C; for `Cn1cc2c(C#CCO)cccc2n1`: 139 to 140 °C.

Molecule `CC#CCOc1nsc(-c2ccccc2)n1` displayed a melting point of 70.3 °C. The same measure for `CC(=O)Oc1c(C(C)C)cc(-c2c3ccccc3cc3sc(C)c(C)c23)cc1C(C)C`: 243 to 245 °C; for `CC(C)Oc1ccc(F)cc1OCCN1C(=O)c2ccccc2C1=O`: 68 °C. To `CCc1cc(C)cc(CC)c1C(C(=O)NC)C(=O)NC` belongs 98 to 100 °C; to `Cc1cc2c(c(O)c1C=O)C(C)(C)CCC2(C)C`, 91 to 92 °C. The same measure for `CC(C)(C)OC(=O)N[C@H]1CCC(=O)C1`: 97 to 98 °C; for `BrCc1ccc(-c2ccc(CBr)cc2)cc1`: 166 to 168 °C; for `O=C1C2=C(CCCC2)C(=O)N1c1cccc(O)c1`: 196 to 198 °C. The molecule `COc1cc2c(c3c1OC(C)(C)C3)C(c1cccc(O)c1)=NC(C)(C)C2` came in with a melting point of 208 to 209 °C.

With `CC(C)C[C@@H](NS(=O)(=O)c1ccc(N2CCC(c3ccccc3)CC2)cc1)C(=O)O`, the melting point fell in the range of 163 to 165 °C. To `CC1OC(n2c(Br)nc3cc(Cl)c(Cl)cc32)C(O)C1O` (configuration not stated) belongs 85 to 86 °C; to `C=CC1(O)CCC2C3CCC4=CC(=O)CCC4C3CCC21CC` (configuration not stated), 108 to 111 °C; to `C=C1CCC(C(=O)OC)Cc2onc(-c3ccc(Cl)cc3)c21` (configuration not stated), 113 to 114 °C. The same measure for `CC(C)CC(NC(=O)C(NC(=O)OCc1ccccc1)C(C)C)C(=O)NC(CCCCNC(=O)OCc1ccccc1)C(=O)Oc1cccc2ccccc12` (configuration not stated): 171 to 174 °C; for `O=C(NC12CC3CC(CC(C3)C1)C2)c1cc(O)c(O)cc1[N+](=O)[O-]`: 250 to 255 °C.

As to `COC(=O)c1c(OC)cc(CC(C#N)=CNc2ccccc2)cc1OC`, the melting point lay in the range of 193 to 194 °C. The molecule `CCOC(=O)[C@H]1CC[C@@H](c2ccccc2)N1C(=O)CNC(=O)Nc1cccc(C)c1` (racemic) displayed a melting point of 115 °C. The same measure for `CCC(OC)c1ccc(Cl)c2nc3n(c12)CCCN3c1ccc(Cl)cc1Cl` (configuration not stated): 136 to 137 °C; for `CNC(=O)c1ccc(C(C)(C)CCNC(=O)NCc2ccc(N)nc2)nc1Nc1ccccc1`: 134 °C; for `Cc1ccc(C)n1CCC1SCCC(=O)NC1C(N)=O` (configuration not stated): 181 to 183 °C. The same measure for `Cc1nc(NC(=O)c2ccccc2)sc1C(=O)NCc1ccc(F)cc1`: 206 to 208 °C; for `CC(C)(C)OC(=O)NS(=O)(=O)c1ccc(Br)cc1`: 127 to 128 °C. The molecule `CC(c1ncnc(Cl)c1Cl)C(O)(Cn1cncn1)c1ccc(F)cc1F` (configuration not stated) yielded a melting point of 124 °C. The same measure for `CC1(C)CC(=C(c2ccc(O)cc2)c2ccc(-c3cccc(CO)c3)cc2)CC(C)(C)C1`: 197 to 198 °C; for `CC(C)c1ccc2c(c1)OC1(O)c3ccccc3C(=O)C21N` (configuration not stated): 151 to 152 °C; for `Nc1c(F)c(N2CCC(C(N)c3ccccn3)C2)c(F)c2c1c(=O)c(C(=O)O)cn2C1CC1F` (configuration not stated): 178 to 180 °C. The same measure for `CCn1c(=O)c(-c2c(Cl)cccc2Cl)cc2cnc(Nc3ccc(OC)c(OC)c3)nc21`: 221 to 223 °C. The same measure for `Cc1oc(-c2ccncc2)nc1COc1ccc(Cn2cc(CCC(=O)O)c(-c3ccccc3)n2)cc1`: 154 to 155 °C. As for `CCOC(=O)C(C)(C(=O)OCC)C(=O)c1cc([N+](=O)[O-])cc(Br)c1Cl`, the melting point lay within 75 to 76.5 °C. The molecule `O=Cc1cc(OCCCC(=O)O)ccc1[N+](=O)[O-]` had a melting point of 112 to 114 °C.

The molecule `CCOC(=O)C(=NOC1CCCCO1)c1csc(NC(c2ccccc2)(c2ccccc2)c2ccccc2)n1` (configuration not stated) returned a melting point of 184 °C. `CCC(C)(C)OC(=O)NC(C)(Cc1c[nH]c2ccccc12)C(=O)NCCc1ccc(OC)cc1` (configuration not stated) came in with a melting point of 128 to 130 °C. `COc1ccc(Cn2nc(-c3ccc(SC)cc3)c(-c3ccc(F)cc3)cc2=O)cc1` displayed a melting point of 165 to 166 °C. `N=C(NO)c1ccc(-c2ccc(-c3nc4cc(C(=N)NO)ccc4[nH]3)cc2)nc1` returned a melting point of 305 to 308 °C.

`CCOc1ccc2c(c1)n(C1CCCC1)c(=O)n2Cc1ccc(NC(=O)N(CC)CC)cc1OC` displayed a melting point of 140 °C.

The molecule `CC(C)(C)OC(=O)COc1coc(CO)cc1=O` came in with a melting point of 90 to 92 °C. The molecule `Cc1cc(S(=O)(=O)Nc2ccc(Cl)cc2)c2c(C)ccc(C(C)C)cc1-2` displayed a melting point of 134 to 135 °C. The same measure for `CC1(C)Oc2ccc(C#N)cc2[C@@H](N2CCSC2=NC#N)[C@@H]1O`: 272 to 274 °C; for `CN(C)CCCOC(=O)c1cccc2c(-c3ccccc3)c([N+](=O)[O-])oc12`: 65.5 to 67.5 °C; for `CC(=O)Nc1ccc(-c2ccnc3c(C(=O)c4ccccc4)cnn23)cc1`: 229 to 231 °C. `N#CCC(=O)Nc1ccc(OCc2cccc(F)c2)cc1` registered a melting point of 164 to 166 °C. Regarding `OCCNC(c1ccccc1)(c1ccccc1)c1ccccc1`, the melting point lay within 94 to 97 °C. The same measure for `CC1CC(=O)C(C(=O)c2ccc(S(C)(=O)=O)cc2[N+](=O)[O-])C(=O)C1(C)C` (configuration not stated): 166 to 167 °C; for `CCc1[nH]c2cc(F)ccc2c1C1=CCNCC1`: 194 to 196 °C; for `CC(C)Cc1oc(-c2ccc(F)cc2)nc1CC(=O)O`: 125 to 126 °C.

On to `CNC(=O)C(NC(=O)c1ccc(F)cc1C(F)(F)F)C(O)CO` (configuration not stated), for which the melting point was 163 °C. The same measure for `CCCCCCCC[C@H](O)[C@H](O)[C@H]1CCC(=O)O1`: 117 to 119 °C; for `CC(C)(C)c1cc(NC(=O)c2ccccc2)cc(C(C)(C)C)c1O`: 209 to 210 °C. To `CC(C)(C)OC(=O)N[C@@H](CSc1ccccc1N)C(=O)O` belongs 109 to 111 °C; to `CCc1cn(C2CC(O)C(CSCc3ccccc3)O2)c(=O)[nH]c1=O` (configuration not stated), 149 to 151 °C. As for `CC(C)CC(=O)Nc1cccc(-c2ccnc3c(C(=O)c4ccoc4)cnn23)c1`, the melting point is 144 to 146 °C. To `COc1ccc2c(C(=O)O)nn(Cc3ccc(Cl)c(Cl)c3)c(=O)c2c1` belongs 238 to 240 °C; to `CC(C)(C)c1cc(C=Cc2cc(C=Cc3cc(C(C)(C)C)cc(C(C)(C)C)c3)cc(CO)c2)cc(C(C)(C)C)c1`, 226 to 228 °C; to `COc1ccc(C(N)C2(C(=O)O)C3CC4CC(C3)CC2C4)cc1` (configuration not stated), 205 to 213 °C. With `Cc1cccc(C(=O)Nc2nc(=O)c3ccccc3n2C)c1`, the melting point fell in the range of 266 to 269 °C. For `NC(Cn1cncn1)(Cn1cncn1)c1ccc(Cl)cc1Cl`, the melting point is 135 to 136 °C. Molecule `O=C(Nc1c[nH]nc1C(=O)NCCc1c[nH]c2ccccc12)c1ccccn1` returned a melting point of 250 to 251 °C. The same measure for `NC(=O)OCC(O)COc1noc2ccc(Cl)cc12` (configuration not stated): 123 to 124 °C; for `CCNC(=O)Nc1cccc(Oc2nnc([C@@H](C)NS(=O)(=O)c3ccc(Cl)c(Cl)c3)n2CC)c1`: 118 to 120 °C; for `CCCC[C@H](NC(=O)[C@H](CC(C)C)NC(=O)c1ccc(C)cc1)C(=O)CSCc1ccco1`: 122 to 123 °C. The same measure for `CC(C)(C)n1cc(-c2ccc(-c3ccccc3)cc2)c2c(N)ncnc21`: 212 to 214 °C; for `CC(C)c1[nH]n(-c2c(Cl)cc(Cl)cc2Cl)c2nc(C(O)c3ccccc3)nc(=O)c1-2` (configuration not stated): 246 to 248 °C.

Consider `CC(C)c1cc(-c2ccc(F)cc2)c(C=O)c(C(C)C)n1`, for which the melting point lay within 72 to 75 °C.

In turn, `COc1ccc(N2CCN(Cc3ccc([N+](=O)[O-])cc3)CC2)cc1` yielded a melting point of 130 to 132 °C. With `COc1ccc(CNc2ncnc(Cl)c2N)cc1`, the melting point lay within 187 to 188 °C.
